Test results: patent US9987299B2, “Methods of improving RNAi in well-differentiated airway epithelia” (University of Iowa Research Foundation, priority 2014, dated 2018)

Columns and labels:
RSV N and P protein = test: RSV protein immunoblot in infected HAE; format: cell-based, Respiratory Syncytial Virus; conditions: PAF with RSV N DsiRNA; immunoblot 48 hours after infection
Description: (§1) FIG. 6. […] HAE was either treated or untreated with PAF in concurrence with RSV N DsiRNA. Six hours later the cells were infected with RSV at an MOI of 1. Forty eight hours later, the cell washings from the apical surface was collected and assayed for viral titer (a). The cells were lysed and the proteins visualized after immunoprecipitation with anti-RSV antibodies (b) and the bands quantified by densitometry (c). Data are mean±SD from the results three different experiments, each using a different donor. ***p<0.001 (Student's t-test).
(§2) RSV infection of HAE for both for immunoblot and viral titer was done at an MOI of 1. The virus was thawed at 37° C. and diluted in MEM (0% FCS) to a volume of 70 μl (1MOI)/well. The cells in Millicell filters were rinsed with the same media once and the virus applied to the apical surface. The plate was incubated at 37° C. for a period of 2 hours. After the incubation period, the virus inoculum was rinsed with MEM three times to remove any traces of the virus. The plates were then incubated at 37° C. until used for the assay.
HAE were rinsed with PBS and lysed in RIPA buffer (1% NP-40, 0.5% sodium deoxycholate, 0.1% SDS, 50 mM Tris, protease inhibitors [complete; mini, EDTA-free; Roche Biochemicals, Indianapolis, Ind.]) for 30 minutes at 4° C. […] The supernatant was quantified by BCA protein assay kit (Pierce, Rockford, Ill.). […]

RSV strain A2 = test: RSV titer in apical washings of infected HAE (plaque assay on HEp-2 cells); format: cell-based, Respiratory Syncytial Virus
Description: as §1
For infections, RSV aliquots were resuspended in cold DMEM or DMEM/F12. RSV strain A2 (wt RSV) was kindly provided by Barney Graham (NIH, Bethesda, Md.), and working stocks of RSV were prepared in HEp-2 cells (ATCC).
as §2, with “After the incubation period, the virus inoculum was rinsed with MEM three times to remove any traces of the virus. The plates were then incubated at 37° C. until used for the assay.” left out
HEp-2 cells were seeded onto 12-well plate at a sufficient density so that it reached 90-95% confluence the next day. […] The cells were incubated for an additional 24 hours at 37° C. after which the plaques were counted under a light box. […]

CFTR channel activity = test: Transepithelial short-circuit current and conductance in HAE; format: cell-based, human; conditions: PAF treated and CFTR DsiRNA transduced cells
HAE = test: DIG-labeled DsiRNA entry and uptake into HAE (confocal imaging); format: cell-based, human; conditions: PAF-treated HAE, 1 hour after transduction with Transductin, compared with control HAE
Description: FIG. 2. PAF treatment enhances DsiRNA entry and uptake into cells. […] Blue, nuclei; green, DIG-labeled oligo. The images on the right and the left are from different fields.
The primary human airway epithelia grown at the air-liquid interface were transfected with the DIG-labeled DsiRNA at a concentration of 250 nM after complexing with Transductin. The transfection mixture was left on the apical surface for 1 h. At the end of this period, the cells were fixed in 2% formaldehyde, permeabilized in 0.2% Triton-x-100 and blocked in 1% BSA for 1 h. The cells were then stained with mouse antibody to DIG (Roche Biochemicals, Indianapolis, Ind.) for 1 h, followed by Alexa 488 labeled goat anti-mouse secondary antibody for 1 h, and then Alexa 488 labeled rabbit anti-mouse tertiary antibody (Life Technologies, Carlsbad, Calif.). In some cases an Alexa 564 goat anti-mouse secondary antibody was used. The cells were finally stained with nuclear stain, ToPro 3 for 10 minutes. The filter, containing the cells, was removed from the culture insert by cutting the edges with razor blade, and mounted on a slide with Vectashield (Vector Laboratories Inc, Burlingame, Calif.). The cells were visualized by confocal microscopy (Bio-Rad Radience 2100MP Multiphoton/Confocal Microscope, Bio-Rad, Hercules, Calif.).

platelet activating factor [PAF]
RSV N and P protein abundance compared to untreated control cells (RSV N and P protein): reduced | reduction of viral titers from apical rinses (RSV strain A2; PAF with RSV N DsiRNA-Transductin, RSV MOI 1 six hours later, 48 hours after infection): more than 100 fold | effect on viral titers (RSV strain A2; PAFR activation alone (no RSV N DsiRNA effect)): did not reduce viral titers | cAMP-activated changes in transepithelial current and conductance (CFTR channel activity): significantly reduced | amount of internalized DIG-labeled DsiRNA (HAE): substantial increase in the amount of internalized label
